From publication PMC7946438 (The Journal of Biological Chemistry, 2021)

Legend:
DYRK2 [1] = biological target: T1, DYRK2 (Homo sapiens, UniProt Q92630); test: Coupled kinase assay, DYRK2; type: biochemical
T1 sequence (Q92630 146-540): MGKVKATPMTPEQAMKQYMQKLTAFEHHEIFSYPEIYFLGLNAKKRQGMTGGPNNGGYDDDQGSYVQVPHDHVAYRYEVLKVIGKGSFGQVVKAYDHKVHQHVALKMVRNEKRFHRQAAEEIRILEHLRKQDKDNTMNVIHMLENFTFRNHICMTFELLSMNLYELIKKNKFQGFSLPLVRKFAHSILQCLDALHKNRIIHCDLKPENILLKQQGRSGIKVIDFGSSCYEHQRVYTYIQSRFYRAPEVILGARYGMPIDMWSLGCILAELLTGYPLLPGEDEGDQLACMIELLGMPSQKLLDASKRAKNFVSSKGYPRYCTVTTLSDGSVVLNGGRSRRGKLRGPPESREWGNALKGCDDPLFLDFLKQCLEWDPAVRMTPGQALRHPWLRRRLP

MDA-MB-231 = test: Cytotoxicity by MTT assay, MDA-MB-231; type: cell-based; conditions: for IC50: Homo sapiens, MDA-MB-231, read-out: IC50 dose; for IC10 dose: MDA-MB-231, value used as dose in wound-healing assay
MDA-MB-231 cells [2] = test: Stability of the compound in cells by live-cell fluorescence imaging; type: in vitro ADME; conditions: MDA-MB-231, 10 μM
HEK 293T = test: Cytotoxicity by MTT assay, HEK 293T; type: cell-based; conditions: Homo sapiens, 48 h, read-out: IC50 value HEK 293T
Src [3] = biological target: T2, Src (Homo sapiens, UniProt P12931); conditions: MDA-MB-231
Target sequence in this assay (P12931 whole entry): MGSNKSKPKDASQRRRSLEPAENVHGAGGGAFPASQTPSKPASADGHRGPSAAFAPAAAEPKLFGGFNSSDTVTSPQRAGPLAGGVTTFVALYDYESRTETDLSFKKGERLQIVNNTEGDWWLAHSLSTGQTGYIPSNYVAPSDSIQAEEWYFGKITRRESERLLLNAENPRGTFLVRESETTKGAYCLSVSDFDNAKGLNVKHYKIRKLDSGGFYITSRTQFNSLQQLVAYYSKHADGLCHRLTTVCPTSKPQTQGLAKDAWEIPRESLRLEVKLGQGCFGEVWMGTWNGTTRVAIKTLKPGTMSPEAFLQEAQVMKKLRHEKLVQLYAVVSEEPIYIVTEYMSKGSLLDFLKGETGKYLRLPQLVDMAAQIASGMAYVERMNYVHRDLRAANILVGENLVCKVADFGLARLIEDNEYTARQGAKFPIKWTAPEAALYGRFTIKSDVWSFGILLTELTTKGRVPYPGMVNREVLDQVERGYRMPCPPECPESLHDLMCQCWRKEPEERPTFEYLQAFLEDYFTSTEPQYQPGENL

MDA-MB-231 cells [4] = test: Plasma membrane integrity, FM4-64-FX live-cell imaging; type: cell-based; conditions: 15 μM, 6 h
ERK1/2 = ERK1/2 nuclear translocation, immunofluorescence; type: cell-based; conditions: MDA-MB-231, 5 μM of 4
Src [5] = biological target: T2, Src; type: biochemical
Target sequence in this assay (P12931 254-535 limits assumed): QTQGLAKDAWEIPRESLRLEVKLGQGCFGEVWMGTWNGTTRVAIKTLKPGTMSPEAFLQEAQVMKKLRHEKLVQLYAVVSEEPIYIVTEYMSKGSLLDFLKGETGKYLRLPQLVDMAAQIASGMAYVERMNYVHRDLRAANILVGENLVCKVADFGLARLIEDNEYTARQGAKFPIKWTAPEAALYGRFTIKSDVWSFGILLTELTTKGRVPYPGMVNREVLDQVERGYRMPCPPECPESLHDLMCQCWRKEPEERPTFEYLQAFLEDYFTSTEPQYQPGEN

Src [6] = biological target: T2, Src; test: biochemical
Target sequence in this assay (P12931 254-535 limits assumed): as above

Abl Y253F [7] = biological target: T3, Abl Y253F (Homo sapiens, UniProt P00519, Y253F); test: Stop-flow tryptophan fluorescence binding kinetics, Abl Y253F
T3 sequence (P00519 229-512 Y253F limits assumed): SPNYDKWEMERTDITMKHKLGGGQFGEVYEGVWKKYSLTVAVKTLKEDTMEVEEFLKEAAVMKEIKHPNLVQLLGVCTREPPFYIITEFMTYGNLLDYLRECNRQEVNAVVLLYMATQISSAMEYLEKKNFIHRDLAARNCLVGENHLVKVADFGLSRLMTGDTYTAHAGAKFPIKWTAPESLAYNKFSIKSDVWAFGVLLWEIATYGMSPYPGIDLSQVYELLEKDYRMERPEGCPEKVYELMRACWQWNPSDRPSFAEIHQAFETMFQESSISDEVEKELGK

RAW 264.7 cells = test: Intracellular calcium detection; type: cell-based, murine; conditions: RAW 264.7, 5 μM of 4
DYRK2 [8] = biological target: T1, DYRK2; test: Stop-flow tryptophan fluorescence binding kinetics, DYRK2; conditions: tryptophan fluorescence transient
[9] = tested on: Bcl-2, Cytochrome C, caspase 3, Bid; test: Western blot analysis of apoptosis markers; type: cell-based; conditions: MDA-MB-231, 10 and 20 μM, 12 h
Src, ERK1/2, and STAT3 = test: Phosphorylation of Src, ERK1/2 and STAT3 in macrophages, immunoprecipitation; type: cell-based, murine; conditions: RAW 264.7, LPS activated
Hck [10] = biological target: T4, Hck (Homo sapiens, UniProt P08631); test: biochemical; type: binding
Target sequence in this assay (P08631 247-526 limits assumed): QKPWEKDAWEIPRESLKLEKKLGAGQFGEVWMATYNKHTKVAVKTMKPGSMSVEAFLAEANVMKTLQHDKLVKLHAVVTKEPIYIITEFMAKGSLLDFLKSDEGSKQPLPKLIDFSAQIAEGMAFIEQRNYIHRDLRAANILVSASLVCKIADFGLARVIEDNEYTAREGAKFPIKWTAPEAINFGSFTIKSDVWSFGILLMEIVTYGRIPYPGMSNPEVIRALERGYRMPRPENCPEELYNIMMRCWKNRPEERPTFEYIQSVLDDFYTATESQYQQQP

MDA-MB-231 cells [11] = test: Wound-healing assay; type: cell-based; conditions: IC10 and IC50 dose
pUC19 plasmid DNA = test: DNA cross-linking assay; conditions: 0.1–20 μM, 37 °C, 2 h
Hck [12] = biological target: T4, Hck; test: biochemical; type: biochemical
Target sequence in this assay (P08631 262-515 limits assumed): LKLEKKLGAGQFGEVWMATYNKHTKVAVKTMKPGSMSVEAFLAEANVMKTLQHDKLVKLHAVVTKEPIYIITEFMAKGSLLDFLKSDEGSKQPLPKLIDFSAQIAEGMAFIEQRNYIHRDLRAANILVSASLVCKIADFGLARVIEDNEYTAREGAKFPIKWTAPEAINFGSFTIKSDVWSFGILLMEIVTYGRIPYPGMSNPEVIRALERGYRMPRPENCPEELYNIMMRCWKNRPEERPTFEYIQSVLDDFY

Hck [13] = biological target: T4, Hck; type: biochemical
Target sequence in this assay (P08631 247-526 limits assumed): as the sequence (P08631 247-526 limits assumed) above

[14] = Aggregation by dynamic light scattering; type: physicochemical; conditions: 15 μM in aqueous assay buffer
Solution stability = type: physicochemical
pY-Hck = pY-Hck (Homo sapiens, UniProt P08631); test: Coupled kinase assay, phosphorylated Hck; type: biochemical; conditions: 5 μM of 4
STAT3 = STAT3 nuclear translocation, immunofluorescence; type: cell-based, murine; conditions: RAW 264.7, 5 μM of 4
pY-Src = pY-Src (Homo sapiens, UniProt P12931); test: Coupled kinase assay, phosphorylated Src; type: biochemical; conditions: 5 μM of 4
Src kinase domain = Src kinase domain (Homo sapiens, UniProt P12931)
Abl Y253F [15] = biological target: T3, Abl Y253F; test: Kinase activity of Abl Y253F mutant; type: biochemical; conditions: 10 μM

pY-Src, sequence (P12931 254-535): as the sequence (P12931 254-535 limits assumed) above
Src kinase domain, sequence (P12931 254-535 limits assumed): as above
pY-Hck, sequence (P08631 166-445): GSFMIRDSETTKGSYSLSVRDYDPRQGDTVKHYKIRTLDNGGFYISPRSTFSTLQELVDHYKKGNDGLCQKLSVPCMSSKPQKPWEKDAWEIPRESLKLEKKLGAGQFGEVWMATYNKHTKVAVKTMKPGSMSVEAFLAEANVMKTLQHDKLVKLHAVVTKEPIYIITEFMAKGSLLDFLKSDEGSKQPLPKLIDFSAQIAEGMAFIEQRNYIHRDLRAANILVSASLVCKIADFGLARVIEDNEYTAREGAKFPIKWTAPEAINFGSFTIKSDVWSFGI

Structure (SMILES): COc1cc(/C=C/C(=O)CC(=O)/C=C/c2ccc(O)c(OC)c2)ccc1O [Compound 1, Curcumin, reference compound]
- Ki (DYRK2 [1]): 6 nM
- IC50 (MDA-MB-231): 13000 nM
- IC10 dose (MDA-MB-231): 600 nM
- Time to degradation inside the cell (MDA-MB-231 cells [2]; fluorescence): ≤ 1 h

Structure (SMILES): COc1cc(/C=C/C(=O)C(=Cc2ccc(N(CCCl)CCCl)cc2)C(=O)/C=C/c2ccc(O)c(OC)c2)ccc1O [Compound 4, (1E,6E)-4-(4-(bis(2-chloroethyl)amino)benzylidene)-1,7-bis(4-hydroxy-3-methoxyphenyl)hepta-1,6-diene-3,5-dione]
- IC50 (HEK 293T): 24900 ± 1000 nM
- Autophosphorylation of Src in the cell (Src [3]): inhibits the autophosphorylation of Src
- Effect on plasma membrane integrity (MDA-MB-231 cells [4]): not affecting the membrane integrity
- Cytosolic fraction of ERK1/2 after TNF-α activation (ERK1/2): significantly increased
- Reduction of the rate of autophosphorylation (Src [5]): 2.5 fold
- Ki (Src [6]): 460 ± 110 nM
- Kd (Abl Y253F [7]): 1300 ± 300 nM
- Ca^2+ release after LPS activation (RAW 264.7 cells): significant reduction
- Interaction with DYRK2 (DYRK2 [8]): did not interact
- BH3 interacting domain death agonist expression level [9]: does not affect
- Mitochondria-mediated apoptotic pathway (Bcl-2, cytochrome C, Caspase3) [9]: activates the mitochondria-mediated apoptotic pathway
- Phosphorylation of Src, ERK1/2, and STAT3 (Src, ERK1/2, and STAT3): concentration-dependent reduced phosphorylation
- Kd (Hck [10]): 50 ± 10 nM
- Effect on wound-healing rates (MDA-MB-231 cells [11]): significantly impaired the wound-healing rates
- DNA cross-linking (pUC19 plasmid DNA): do not cross-link DNA
- Ki (Hck [12]): 70 ± 11 nM
- Mode of inhibition (Hck [12]; Km for ATP changes, Vmax unchanged): competitive inhibitor for the ATP-binding site
- Reduction of the rate of autophosphorylation (Hck [13]): 500 fold
- IC50 (MDA-MB-231): 1300 nM
- IC10 dose (MDA-MB-231): 100 nM
- Aggregation in solution (oligomeric state, DLS) [14]: did not aggregate
- Time stable in solution by 1H NMR (Solution stability; 8:2 v/v of 1x PBS and DMSO-d6, 24 h observed period): at least 24 h
- Stability in the kinase assay buffer (Solution stability; kinase assay buffer pH 8.0, 5% DMSO, 1 h): most stable
- Inhibition of phosphorylated Hck (pY-Hck) (pY-Hck): does not inhibit
- Cytosolic fraction of STAT3 after LPS activation (STAT3): increased cytosolic fraction of STAT3
- Inhibition of phosphorylated Src (pY-Src) (pY-Src): does not inhibit
- Covalent modification of cysteine residues of Src kinase (Src kinase domain): not covalently modifying
- Inhibition of Abl Y253F kinase activity (Abl Y253F [15]): better inhibition compared with imatinib
- Time for which fluorescence was observed inside the cell (MDA-MB-231 cells [2]; observed for 14 h): 14 h
